# Target: T1, human acetyl-CoA carboxylase 2 (ACC2) (Homo sapiens, UniProt O00763)
# T1 construct: The cDNA encoding amino acids 144 to 2458 of human acetyl-CoA carboxylase 2; made in house; host or cells: Sf9 insect cells (baculovirus, pFastBac1)
# Assay: Acetyl-CoA carboxylase enzyme assay (malonyl-CoA formation by LC/MS/MS)
# Type: biochemical
# Settings: recombinant human ACC2 (aa 144-2458); read-out: IC50 ACC2
# Summary of the method: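 Malonyl-CoA formation was read by LC/MS/MS MRM against a [13C3]-malonyl-CoA internal standard, after acetic acid quench. The enzyme was baculovirus/Sf9-expressed human ACC2 residues 144–2458, given 15 minutes room-temperature compound preincubation in HEPES pH 7.5 buffer with MgCl2, citrate and DTT. Substrate solution held 50 μM acetyl-CoA, 120 μM ATP and 2 mM KHCO3.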
# T1 sequence (O00763 144-2458): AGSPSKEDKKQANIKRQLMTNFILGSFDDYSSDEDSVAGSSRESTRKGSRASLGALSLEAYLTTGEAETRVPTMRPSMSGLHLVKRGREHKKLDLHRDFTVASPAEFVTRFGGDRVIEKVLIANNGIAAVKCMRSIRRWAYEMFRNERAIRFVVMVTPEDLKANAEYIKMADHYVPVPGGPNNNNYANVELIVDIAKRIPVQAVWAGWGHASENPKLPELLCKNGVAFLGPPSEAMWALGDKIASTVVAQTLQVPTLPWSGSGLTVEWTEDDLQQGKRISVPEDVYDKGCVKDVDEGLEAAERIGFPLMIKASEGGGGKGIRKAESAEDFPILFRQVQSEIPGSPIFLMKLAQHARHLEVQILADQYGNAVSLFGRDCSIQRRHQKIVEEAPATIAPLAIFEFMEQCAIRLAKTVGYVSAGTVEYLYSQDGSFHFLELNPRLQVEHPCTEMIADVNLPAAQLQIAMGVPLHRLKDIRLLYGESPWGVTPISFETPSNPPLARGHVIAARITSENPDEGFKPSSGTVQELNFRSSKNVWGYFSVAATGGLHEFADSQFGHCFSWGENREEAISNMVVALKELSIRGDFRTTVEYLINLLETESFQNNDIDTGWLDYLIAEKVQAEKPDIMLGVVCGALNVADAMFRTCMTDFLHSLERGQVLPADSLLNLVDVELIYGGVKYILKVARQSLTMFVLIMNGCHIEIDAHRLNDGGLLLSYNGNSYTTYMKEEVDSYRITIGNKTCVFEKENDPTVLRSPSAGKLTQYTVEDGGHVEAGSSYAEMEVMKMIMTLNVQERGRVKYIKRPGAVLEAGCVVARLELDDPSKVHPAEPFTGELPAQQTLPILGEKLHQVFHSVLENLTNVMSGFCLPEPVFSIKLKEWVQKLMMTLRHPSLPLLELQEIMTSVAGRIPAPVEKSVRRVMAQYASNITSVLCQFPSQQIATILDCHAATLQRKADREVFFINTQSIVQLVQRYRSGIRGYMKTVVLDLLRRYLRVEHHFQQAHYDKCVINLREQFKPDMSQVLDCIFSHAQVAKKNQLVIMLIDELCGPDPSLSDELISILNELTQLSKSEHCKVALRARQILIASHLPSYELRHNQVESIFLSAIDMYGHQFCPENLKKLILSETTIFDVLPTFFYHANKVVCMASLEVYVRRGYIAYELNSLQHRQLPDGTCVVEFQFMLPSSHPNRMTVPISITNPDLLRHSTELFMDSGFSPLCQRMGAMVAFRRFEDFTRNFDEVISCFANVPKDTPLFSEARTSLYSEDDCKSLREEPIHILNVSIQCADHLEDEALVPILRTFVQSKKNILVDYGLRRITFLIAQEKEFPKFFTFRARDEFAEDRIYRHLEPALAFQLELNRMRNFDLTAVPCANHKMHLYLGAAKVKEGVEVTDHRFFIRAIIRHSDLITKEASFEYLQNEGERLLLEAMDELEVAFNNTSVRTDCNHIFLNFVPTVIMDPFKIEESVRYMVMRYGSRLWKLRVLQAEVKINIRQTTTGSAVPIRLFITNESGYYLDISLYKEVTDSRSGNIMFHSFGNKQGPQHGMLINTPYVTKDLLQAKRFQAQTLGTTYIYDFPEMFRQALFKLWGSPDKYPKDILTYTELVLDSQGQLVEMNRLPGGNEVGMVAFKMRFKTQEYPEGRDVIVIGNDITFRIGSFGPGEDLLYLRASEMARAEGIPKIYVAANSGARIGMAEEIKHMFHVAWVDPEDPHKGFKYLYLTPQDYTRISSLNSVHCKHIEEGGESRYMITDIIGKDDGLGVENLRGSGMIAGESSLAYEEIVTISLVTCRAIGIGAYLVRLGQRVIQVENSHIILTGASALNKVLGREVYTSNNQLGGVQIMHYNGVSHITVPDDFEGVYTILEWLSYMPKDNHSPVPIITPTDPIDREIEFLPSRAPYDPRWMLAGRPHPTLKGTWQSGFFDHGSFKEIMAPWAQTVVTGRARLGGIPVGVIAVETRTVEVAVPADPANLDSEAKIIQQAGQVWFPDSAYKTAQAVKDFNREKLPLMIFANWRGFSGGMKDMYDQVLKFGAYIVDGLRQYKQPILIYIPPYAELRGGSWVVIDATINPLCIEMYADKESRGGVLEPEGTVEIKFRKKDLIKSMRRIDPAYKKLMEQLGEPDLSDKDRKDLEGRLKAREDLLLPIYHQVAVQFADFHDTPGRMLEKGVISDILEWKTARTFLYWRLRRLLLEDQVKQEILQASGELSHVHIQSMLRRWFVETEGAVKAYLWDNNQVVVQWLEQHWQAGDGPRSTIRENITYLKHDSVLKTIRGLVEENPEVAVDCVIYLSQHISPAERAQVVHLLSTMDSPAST
row,Compound,IC50
1,"Cn1c(-c2ccc(CCC(=O)O)cc2)c(Cl)c2ccc(S(=O)(=O)N[C@H]3CC[C@H](C(=O)N4CCCCC4)CC3)cc21 [Example 361, 3-(4-(3-chloro-1-methyl-6-(N-((1r,4r)-4-(piperidine-1-carbonyl)cyclohexyl)sulfamoyl)-1H-indol-2-yl)phenyl)propanoic acid]",10 nM
2,"CC(NC(=O)[C@H]1CC[C@H](NS(=O)(=O)c2cnc3ccccc3c2)CC1)c1cnn(C)c1 (stereo partly shown) [Example 62, (1r,4r)-N-(1-(1-methyl-1H-pyrazol-4-yl)ethyl)-4-(quinoline-3-sulfonamido)cyclohexanecarboxamide]",> 35000 nM
3,"COc1ccc(Nc2nc3cc(S(=O)(=O)N[C@H]4CC[C@H](C(=O)OC(C)C)CC4)ccc3[nH]2)cc1 [Example 555, (1r,4r)-isopropyl 4-(2-(4-methoxyphenylamino)-1H-benzo[d]imidazole-5-sulfonamido)cyclohexanecarboxylate]",30 nM
4,"CC(C)OC(=O)c1ccc(NS(=O)(=O)c2ccc3nc(-c4ccccc4F)[nH]c3c2)cc1 [Example 502, isopropyl 4-(2-(2-fluorophenyl)-1H-benzo[d]imidazole-6-sulfonamido)benzoate]",1280 nM
5,"O=C([C@H]1CC[C@H](NS(=O)(=O)c2ccc3c(c2)NCCC3)CC1)N1CCNCC1c1ccccc1 (stereo partly shown) [Example 176, N-((1r,4r)-4-(2-phenylpiperazine-1-carbonyl)cyclohexyl)-1,2,3,4-tetrahydroquinoline-7-sulfonamide]",105 nM
6,"C[C@H]1COCCN1C(=O)[C@H]1CC[C@H](NS(=O)(=O)c2ccc3cc(-c4ccc(CCC(=O)O)cc4)n(C)c3c2)CC1 [Example 427, 3-(4-(1-methyl-6-(N-((1S,4r)-4-((S)-3-methylmorpholine-4-carbonyl)cyclohexyl)sulfamoyl)-1H-indol-2-yl)phenyl)propanoic acid]",15 nM
7,"O=C([C@H]1CC[C@H](NS(=O)(=O)c2cnc3c(c2)NCCN3)CC1)N1CCOCC1c1ccccc1 (stereo partly shown) [Example 194, N-((1r,4r)-4-(3-phenylmorpholine-4-carbonyl)cyclohexyl)-1,2,3,4-tetrahydropyrido[3,2-b]pyrazine-7-sulfonamide]",210 nM
8,"COCc1ccc(-c2cc3ccc(S(=O)(=O)N[C@H]4CC[C@H](C(=O)N5CCOC[C@@H]5C)CC4)cc3[nH]2)cc1 [Example 436, 2-(4-(methoxymethyl)phenyl)-N-((1S,4r)-4-((S)-3-methylmorpholine-4-carbonyl)cyclohexyl)-1H-indole-6-sulfonamide]",20 nM
9,"COC(=O)C1CCc2ccc(S(=O)(=O)N[C@H]3CC[C@H](C(=O)N[C@H](C)c4ccc(F)cc4)CC3)cc2N1C (stereo partly drawn) [Example 224, methyl 7-(N-((1R,4r)-4-((R)-1-(4-fluorophenyl)ethylcarbamoyl)cyclohexyl)sulfamoyl)-1-methyl-1,2,3,4-tetrahydroquinoline-2-carboxylate]",60 nM
10,"O=C([C@H]1CC[C@H](NS(=O)(=O)c2ccc3[nH]c(-c4ccccc4)nc3c2)CC1)N1Cc2ccccc2C1 [Example 623, N-((1r,4r)-4-(isoindoline-2-carbonyl)cyclohexyl)-2-phenyl-1H-benzo[d]imidazole-5-sulfonamide]",560 nM
11,"Cc1cc(C(=O)O)ccc1-c1cc2ccc(S(=O)(=O)N[C@H]3CC[C@H](C(=O)N[C@H](C)c4ccc(F)cc4)CC3)cc2[nH]1 [Example 301, 4-(6-(N-((1R,4r)-4-((R)-1-(4-fluorophenyl)ethylcarbamoyl)cyclohexyl)sulfamoyl)-1H-indol-2-yl)-3-methylbenzoic acid]",< 10 nM
12,"CC(C)(O)[C@@H](NC(=O)[C@H]1CC[C@H](NS(=O)(=O)c2ccc3ccccc3c2)CC1)c1ccccc1 [Example 96, (1r,4S)-N-((S)-2-hydroxy-2-methyl-1-phenylpropyl)-4-(naphthalene-2-sulfonamido)cyclohexanecarboxamide]",10 nM
13,"O=C([C@H]1CC[C@H](NS(=O)(=O)c2ccc3[nH]c(-c4ccccc4)nc3c2)CC1)N1CCN(CC2CCCCC2)CC1 [Example 627, N-((1r,4r)-4-(4-(cyclohexylmethyl)piperazine-1-carbonyl)cyclohexyl)-2-phenyl-1H-benzo[d]imidazole-5-sulfonamide]",2060 nM
14,"C[C@@H](NC(=O)[C@H]1CC[C@H](NS(=O)(=O)c2ccc3nc(C#CCN4CCNCC4)ccc3c2)CC1)c1ccc(F)cc1 [Example 247, (1r,4R)-N-((R)-1-(4-fluorophenyl)ethyl)-4-(2-(3-(piperazin-1-yl)prop-1-ynyl)quinoline-6-sulfonamido)cyclohexanecarboxamide]",30 nM
15,"Cc1cc(CO)ccc1-c1cc2ccc(S(=O)(=O)N[C@H]3CC[C@H](C(=O)N4CCOCC4c4ccccc4)CC3)cc2[nH]1 (stereo partly shown) [Example 311, 2-(4-(hydroxymethyl)-2-methylphenyl)-N-((1r,4r)-4-(3-phenylmorpholine-4-carbonyl)cyclohexyl)-1H-indole-6-sulfonamide]",< 10 nM
16,"COc1ccc(Nc2nc3cc(S(=O)(=O)N[C@H]4CC[C@H](c5nnc(C(C)C)o5)CC4)ccc3[nH]2)cc1 [Example 594, N-((1r,4r)-4-(5-isopropyl-1,3,4-oxadiazol-2-yl)cyclohexyl)-2-(4-methoxyphenylamino)-1H-benzo[d]imidazole-5-sulfonamide]",202 nM
17,"C[C@H]1CCCN1C(=O)[C@H]1CC[C@H](NS(=O)(=O)c2ccc3ccccc3c2)CC1 [Example 146, N-((1S,4r)-4-((S)-2-methylpyrrolidine-1-carbonyl)cyclohexyl)naphthalene-2-sulfonamide]",952 nM
18,"CCc1ccc2cc(S(=O)(=O)N[C@H]3CC[C@H](C(=O)N[C@H](C)c4ccc(F)cc4)CC3)ccc2n1 [Example 74, (1r,4R)-4-(2-ethylquinoline-6-sulfonamido)-N-((R)-1-(4-fluorophenyl)ethyl)cyclohexanecarboxamide]",160 nM
19,"Cc1cc(CO)ccc1-c1cc2ccc(S(=O)(=O)N[C@H]3CC[C@H](C(=O)N[C@H](C)c4ccc(F)cc4)CC3)cc2[nH]1 [Example 302, (1r,4R)-N-((R)-1-(4-fluorophenyl)ethyl)-4-(2-(4-(hydroxymethyl)-2-methylphenyl)-1H-indole-6-sulfonamido)cyclohexanecarboxamide]",< 10 nM
20,"Cc1c(C(F)(F)F)nc2cccc(S(=O)(=O)N[C@H]3CC[C@H](C(=O)N[C@H](C)c4ccc(F)cc4)CC3)n12 [Example 63, (1r,4R)-N-((R)-1-(4-fluorophenyl)ethyl)-4-(3-methyl-2-(trifluoromethyl)imidazo[1,2-a]pyridine-5-sulfonamido)cyclohexanecarboxamide]",> 35000 nM
21,"Cc1ccccc1-c1cc2ccc(S(=O)(=O)N[C@H]3CC[C@H](C(=O)N4CCN(C(=O)OC(C)(C)C)C[C@@H]4c4ccccc4)CC3)cc2[nH]1 [Example 322, (S)-tert-butyl 3-phenyl-4-((1r,4S)-4-(2-o-tolyl-1H-indole-6-sulfonamido)cyclohexanecarbonyl)piperazine-1-carboxylate]",< 10 nM
22,"CCOC(=O)Nc1ccc(Nc2nc3cc(S(=O)(=O)Nc4ccc(C(=O)OC(C)C)cc4)ccc3[nH]2)cc1 [Example 534, isopropyl 4-(2-(4-(ethoxycarbonylamino)phenylamino)-1H-benzo[d]imidazole-5-sulfonamido)benzoate]",524 nM
